Measured values from patent US9145411B2, “Substituted amino-pyrimidine derivatives” (Asana Biosciences, LLC, priority 2012, dated 2015).

Legend:
PC3 cells = test: XTT assay for cell viability, PC3 cells; assay type: cell-based; settings: Homo sapiens, PC-3; PC3 cell proliferation, 96 hours
Experimental: Using a commercial kit from Sigma Aldrich (Catalog #X34251) and following its protocol, PC3 cells in the log phase of growth were employed and seeded at an optimal density of 1000 cell/well on to 96 well plates and incubated for 24 hours followed by the addition of compounds of formula (I) in serial dilutions. Compound dilutions were made in DMSO. The cells were incubated with the compounds of formula (I) for 96 hours and XTT tetrazolium dye (Sigma, USA) was subsequently added and incubated at 37° C. After the color formation, absorbance was measured at 465 nm in a Spectramax® Gemini spectrophotometer. EC50 values were calculated using a sigmoidal dose response curve fit in GraphPad Prism® v5 software. The tested compounds of formula (I) which caused inhibition of PC3 cell proliferation as determined by this assay protocol are shown in Table 2.

PI3Kα (wild-type) = molecular target: T1, PI3Kα (wild-type) (Homo sapiens, UniProt P42336); test: PI3 Kinase TR-FRET assay, PI3Kα (wild-type); assay type: biochemical; settings: wild-type P110/P85α, 10 μM ATP
T1 construct: made in house; host or cells: SF9 insect cells
Experimental: The ability of compounds of the invention to inhibit PI3K activity was determined in a homogeneous TR-FRET assay using a PI3K assay kit (Millipore, USA; cat #33-016) according to manufacturer's instructions. PI3-Kinases (isoforms α, β, γ and δ) catalyze the phosphorylation of phosphatidylinositol, PIP2 to PIP3 in the presence of ATP and Mg^2+. The PIP3 product is detected by displacement of biotin-PIP3 from an energy transfer complex consisting of Europium labeled anti-GST monoclonal antibody, a GST-tagged PH domain, biotinylated PIP3 and Streptavidin-APC. Excitation of Europium in the complex results in an energy transfer to the APC and a fluorescence emission at 665 nm. The PIP3 product displaces biotin-PIP3 from the complex resulting in a loss of energy transfer and thus a decrease in signal.
To test for the ability of compounds to inhibit the activity of PI3Kα (wild-type), exemplary compounds of formula (I) were dissolved in DMSO and directly distributed into 384-well plates at a volume of 0.5 μL. 14.5 μL of P110/P85α/PIP2 mixture in buffer (obtained from the Millipore kit) containing MgCl2 (40 mM) and DTT (5 mM) was added to compound wells and incubated for 60 minutes at room temperature. P110/P85α was expressed in SF9 insect cells and purified nickel column extraction. Five ng of wild-type P110/P85α was used in the assay. The kinase reaction was started by the addition of ATP. The assay concentrations of both PIP2 and ATP were 10 μM. The reaction mixture was incubated for 30 minutes at room temperature and was terminated by the addition of stop mix and detection mix. Fluorescence was measured at 615 and 665 nm upon excitation at 340 nm in a Victor™ V5 fluorometer (Perkin Elmer, USA). The fluorescence emission ratio at 665 to 615 nm, proportional to the kinase activity, was plotted against the compound concentration to generate dose-response curves and IC50 values were determined using GraphPad Prism® 5 software.

mTOR kinase = molecular target: T2, mTOR kinase (Homo sapiens, UniProt P42345); test: mTOR kinase TR-FRET assay; assay type: biochemical; settings: 20 μM ATP
T2 construct: purchased Millipore, USA
Experimental: Compound inhibition for mTOR kinase was determined in a homogeneous TR-FRET assay using the Lance® ULight-p70 S6K (Thr 389) peptide (obtained from Perkin-Elmer). The ULight™-labeled synthetic peptide contains the amino acid residues surrounding Thr389 of human p70 S6K. The ULight-p70 S6K peptide is phosphorylated at Thr389 by mTOR. Phosphorylation motif: LGFTYVAP as substrate.
The compound dilution was carried out in 100% DMSO followed by a buffer dilution. The reaction buffer was HEPES (50 mM pH 7.5), EGTA (1 mM), MnCl2 (3 mM). Test compounds at various concentrations were pre-incubated with mTOR (Millipore, USA; 5 ng) for 60 min, and then the Lance® ULight-p70 S6K (Thr 389) peptide (50 nM) was added along with ATP (20 μM). After incubating the reaction mixture for 60 minutes at room temperature, the kinase reaction was terminated by the addition of EDTA (10 mM) followed by the addition of detection mix, i.e., 1 nM Eu-labeled anti-phospho-substrate antibody (Perkin Elmer, USA). The fluorescence emission at […] was measured upon excitation at 340 nm. IC50 values were subsequently determined using a sigmoidal dose-response curve (variable slope) in GraphPad Prism® 5 software.
Compounds of formula (I) caused inhibition of mTOR kinase activity as determined by this assay.

T1 sequence (P42336 whole entry, species assumed): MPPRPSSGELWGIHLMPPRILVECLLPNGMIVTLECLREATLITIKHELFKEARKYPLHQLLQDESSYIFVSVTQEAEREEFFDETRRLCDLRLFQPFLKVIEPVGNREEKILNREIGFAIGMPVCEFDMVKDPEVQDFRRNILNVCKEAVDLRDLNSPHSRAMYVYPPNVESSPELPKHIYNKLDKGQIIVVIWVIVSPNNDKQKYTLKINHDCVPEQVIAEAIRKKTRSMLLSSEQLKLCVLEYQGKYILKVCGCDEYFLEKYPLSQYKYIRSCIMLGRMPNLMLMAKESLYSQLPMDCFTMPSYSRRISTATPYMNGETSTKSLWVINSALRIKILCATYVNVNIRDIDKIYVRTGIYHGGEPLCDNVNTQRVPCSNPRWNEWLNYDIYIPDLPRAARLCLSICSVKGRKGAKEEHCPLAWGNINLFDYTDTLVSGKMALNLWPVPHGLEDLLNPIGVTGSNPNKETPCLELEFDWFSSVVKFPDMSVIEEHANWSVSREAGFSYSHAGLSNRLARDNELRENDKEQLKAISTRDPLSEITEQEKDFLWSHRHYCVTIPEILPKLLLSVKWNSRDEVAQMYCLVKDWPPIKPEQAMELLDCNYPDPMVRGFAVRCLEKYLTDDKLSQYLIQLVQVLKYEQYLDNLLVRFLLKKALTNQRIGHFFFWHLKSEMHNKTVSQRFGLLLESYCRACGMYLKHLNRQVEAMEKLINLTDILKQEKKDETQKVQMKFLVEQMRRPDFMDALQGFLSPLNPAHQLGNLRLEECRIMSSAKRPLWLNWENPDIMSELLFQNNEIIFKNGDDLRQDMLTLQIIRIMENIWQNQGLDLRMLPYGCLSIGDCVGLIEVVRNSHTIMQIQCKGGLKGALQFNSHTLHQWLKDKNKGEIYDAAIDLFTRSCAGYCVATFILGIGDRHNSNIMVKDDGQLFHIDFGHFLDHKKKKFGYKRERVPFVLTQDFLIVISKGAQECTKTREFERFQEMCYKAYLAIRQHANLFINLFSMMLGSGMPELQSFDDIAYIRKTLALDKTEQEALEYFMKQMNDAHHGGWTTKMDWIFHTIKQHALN
T1 sequence (P27986 whole entry partner, species assumed): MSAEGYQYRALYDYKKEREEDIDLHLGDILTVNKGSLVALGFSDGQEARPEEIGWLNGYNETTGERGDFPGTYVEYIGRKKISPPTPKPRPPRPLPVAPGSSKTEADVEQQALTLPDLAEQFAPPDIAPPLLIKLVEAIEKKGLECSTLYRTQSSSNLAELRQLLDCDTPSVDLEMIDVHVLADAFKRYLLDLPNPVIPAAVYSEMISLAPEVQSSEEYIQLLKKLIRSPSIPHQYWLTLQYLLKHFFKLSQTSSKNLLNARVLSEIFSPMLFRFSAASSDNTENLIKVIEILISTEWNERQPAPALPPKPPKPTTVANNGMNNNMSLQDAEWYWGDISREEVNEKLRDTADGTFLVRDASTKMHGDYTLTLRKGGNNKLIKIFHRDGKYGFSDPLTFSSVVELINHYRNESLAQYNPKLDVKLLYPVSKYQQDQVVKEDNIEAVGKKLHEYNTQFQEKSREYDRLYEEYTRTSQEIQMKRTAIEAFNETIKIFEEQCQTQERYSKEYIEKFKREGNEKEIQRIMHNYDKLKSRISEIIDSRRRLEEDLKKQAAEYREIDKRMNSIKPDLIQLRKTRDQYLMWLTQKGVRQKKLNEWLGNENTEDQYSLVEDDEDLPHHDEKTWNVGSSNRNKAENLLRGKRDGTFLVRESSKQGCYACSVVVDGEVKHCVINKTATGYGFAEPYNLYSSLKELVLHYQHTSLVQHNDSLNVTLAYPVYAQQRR
T2 sequence (P42345 1362-2549 limits assumed): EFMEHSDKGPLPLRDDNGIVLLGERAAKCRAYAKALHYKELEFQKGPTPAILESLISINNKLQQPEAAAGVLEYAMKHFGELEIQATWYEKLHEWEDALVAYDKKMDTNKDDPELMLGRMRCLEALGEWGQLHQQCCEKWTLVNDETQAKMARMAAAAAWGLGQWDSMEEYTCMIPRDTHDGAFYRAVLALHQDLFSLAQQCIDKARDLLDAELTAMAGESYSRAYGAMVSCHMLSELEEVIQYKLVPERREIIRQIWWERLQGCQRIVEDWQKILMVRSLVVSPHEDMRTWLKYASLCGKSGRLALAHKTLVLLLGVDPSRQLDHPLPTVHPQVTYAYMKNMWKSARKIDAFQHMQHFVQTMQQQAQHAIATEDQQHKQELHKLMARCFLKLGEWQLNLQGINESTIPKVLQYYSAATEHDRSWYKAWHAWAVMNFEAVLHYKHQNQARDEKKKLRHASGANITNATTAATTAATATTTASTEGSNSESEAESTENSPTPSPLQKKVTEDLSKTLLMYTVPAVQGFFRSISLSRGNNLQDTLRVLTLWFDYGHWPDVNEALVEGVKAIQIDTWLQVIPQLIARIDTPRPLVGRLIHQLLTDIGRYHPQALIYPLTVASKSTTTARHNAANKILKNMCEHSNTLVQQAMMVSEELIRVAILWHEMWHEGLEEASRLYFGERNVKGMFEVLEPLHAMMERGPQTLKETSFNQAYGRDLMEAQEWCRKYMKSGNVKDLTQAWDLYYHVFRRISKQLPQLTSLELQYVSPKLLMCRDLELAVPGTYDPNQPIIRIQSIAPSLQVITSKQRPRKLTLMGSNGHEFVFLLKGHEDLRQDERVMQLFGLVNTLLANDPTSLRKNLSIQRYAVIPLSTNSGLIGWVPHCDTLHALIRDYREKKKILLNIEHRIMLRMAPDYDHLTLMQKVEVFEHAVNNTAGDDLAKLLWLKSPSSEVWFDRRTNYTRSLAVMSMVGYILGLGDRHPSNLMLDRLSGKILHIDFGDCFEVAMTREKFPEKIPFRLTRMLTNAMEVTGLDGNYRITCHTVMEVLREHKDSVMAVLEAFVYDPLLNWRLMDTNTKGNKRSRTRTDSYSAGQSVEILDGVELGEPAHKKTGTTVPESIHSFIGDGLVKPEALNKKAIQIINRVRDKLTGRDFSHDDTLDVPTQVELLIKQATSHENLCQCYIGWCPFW

## CC(F)C(=O)Nc1cccc(-c2cnc3c(N4CCOCC4)nc(-c4cnc(N)nc4)nc3c2)c1 (stereo not drawn) [Example 51, N-(3-(2-(2-amino-pyrimidin-5-yl)-4-morpholinopyrido[3,2-d]pyrimidin-7-yl)phenyl)-2-fluoropropanamide]
PC3 cells
  IC50: 100 to 500 nM
PI3Kα (wild-type)
  IC50: < 50 nM
mTOR kinase
  IC50: < 50 nM

## Nc1ncc(-c2nc(N3CCOCC3)c3ncc(-c4ccc(C(=O)Nc5cccnc5)o4)cc3n2)cn1 [Example 34, 5-(2-(2-aminopyrimidin-5-yl)-4-morpholino-pyrido[3,2-d]pyrimidin-7-yl)-N-(pyridin-3-yl)furan-2-carboxamide]
PC3 cells
  IC50: 100 to 500 nM
PI3Kα (wild-type)
  IC50: < 50 nM
mTOR kinase
  IC50: < 50 nM

## Nc1ncc(-c2nc(N3CCOCC3)c3ncc(-c4cccc(NC(=O)C5CCCCC5)c4)cc3n2)cn1 [Example 60, N-(3-(2-(2-amino-pyrimidin-5-yl)-4-morpholinopyrido[3,2-d]pyrimidin-7-yl)-phenyl)cyclohexane-carboxamide]
PC3 cells
  IC50: 501 to 5000 nM
PI3Kα (wild-type)
  IC50: < 50 nM
mTOR kinase
  IC50: 50 to 200 nM

## CC(=O)Nc1cc(-c2cnc3c(N4CCOCC4)nc(-c4cnc(N)nc4)nc3c2)ccc1N1CCN(C)CC1 [Example 114, N-(5-(2-(2-amino-pyrimidin-5-yl)-4-morpholinopyrido[3,2-d]pyrimidin-7-yl)-2-(4-methylpiperazin-1-yl)-phenyl)acetamide]
PC3 cells
  IC50: 100 to 500 nM
PI3Kα (wild-type)
  IC50: < 50 nM
mTOR kinase
  IC50: < 50 nM

## Nc1ncc(-c2nc(N3CCOCC3)c3ncc(-c4cccc(C(=O)NC5CC5)c4)cc3n2)cn1 [Example 98, 3-(2-(2-aminopyrimidin-5-yl)-4-morpholinopyrido[3,2-d]-pyrimidin-7-yl)-N-cyclopropylbenzamide]
PC3 cells
  IC50: 100 to 500 nM
PI3Kα (wild-type)
  IC50: < 50 nM
mTOR kinase
  IC50: < 50 nM

## Cn1cc(-c2ccc3c(N4CCOCC4)nc(-c4cnc(N)nc4)nc3c2)cn1 [Example 14, 5-(7-(1-methyl-1H-pyrazol-4-yl)-4-morpholinoquinazolin-2-yl)pyrimidin-2-amine]
PC3 cells
  IC50: 501 to 5000 nM
PI3Kα (wild-type)
  IC50: 201 to 10000 nM
mTOR kinase
  IC50: 201 to 10000 nM

## CC(=O)Nc1cccc(-c2ccc3c(N4CCOCC4)nc(-c4cnc(N)nc4)nc3c2)c1 [Example 13, N-(3-(2-(2-amino-pyrimidin-5-yl)-4-morpholinoquinazolin-7-yl)phenyl)acetamide]
PC3 cells
  IC50: 501 to 5000 nM
PI3Kα (wild-type)
  IC50: 201 to 10000 nM
mTOR kinase
  IC50: 50 to 200 nM

## N#CC1(C(=O)Nc2cccc(-c3cnc4c(N5CCOCC5)nc(-c5cnc(N)nc5)nc4c3)c2F)CC1 [Example 125, N-(3-(2-(2-amino-pyrimidin-5-yl)-4-morpholinopyrido[3,2-d]pyrimidin-7-yl)-2-fluorophenyl)-1-cyanocyclopropane-carboxamide]
PC3 cells
  IC50: 100 to 500 nM
PI3Kα (wild-type)
  IC50: < 50 nM
mTOR kinase
  IC50: < 50 nM

## CN1CCN(c2cccc(-c3cnc4c(N5CCOCC5)nc(-c5cnc(N)nc5)nc4c3)c2)CC1 [Example 101, 5-(7-(3-(4-methyl-piperazin-1-yl)phenyl)-4-morpholinopyrido[3,2-d]-pyrimidin-2-yl)pyrimidin-2-amine]
PC3 cells
  IC50: 100 to 500 nM
PI3Kα (wild-type)
  IC50: < 50 nM
mTOR kinase
  IC50: 50 to 200 nM

## Nc1ncc(-c2nc(N3CCOCC3)c3ncc(-c4ccc5c(c4)NC(=O)CO5)cc3n2)cn1 [Example 111, 6-(2-(2-aminopyrimidin-5-yl)-4-morpholinopyrido[3,2-d]pyrimidin-7-yl)-2H-benzo[b][1,4]oxazin-3(4H)-one]
PC3 cells
  IC50: 100 to 500 nM
PI3Kα (wild-type)
  IC50: < 50 nM
mTOR kinase
  IC50: 50 to 200 nM

## CNC(=O)Nc1cccc(-c2cnc3c(N4CCOCC4)nc(-c4cnc(N)nc4)nc3c2)c1 [Example 28, 1-(3-(2-(2-amino-pyrimidin-5-yl)-4-morpholinopyrido[3,2-d]pyrimidin-7-yl)phenyl)-3-methylurea]
PC3 cells
  IC50: 501 to 5000 nM
PI3Kα (wild-type)
  IC50: < 50 nM
mTOR kinase
  IC50: 50 to 200 nM

## CNC(=O)Nc1cccc(-c2ccc3c(N4CCOCC4)nc(-c4cnc(N)nc4)nc3c2)c1 [Example 15, 1-(3-(2-(2-amino-pyrimidin-5-yl)-4-morpholinoquinazolin-7-yl)phenyl)-3-methylurea]
PC3 cells
  IC50: 501 to 5000 nM
PI3Kα (wild-type)
  IC50: 201 to 10000 nM
mTOR kinase
  IC50: < 50 nM

## CN1CCN(c2ccc(-c3cnc4c(N5CCOCC5)nc(-c5cnc(N)nc5)nc4c3)cc2NC(=O)C2CC2)CC1 [Example 117, N-(5-(2-(2-amino-pyrimidin-5-yl)-4-morpholinopyrido[3,2-d]pyrimidin-7-yl)-2-(4-methylpiperazin-1-yl)-phenyl)cyclopropane-carboxamide]
PC3 cells
  IC50: 100 to 500 nM
PI3Kα (wild-type)
  IC50: < 50 nM
mTOR kinase
  IC50: < 50 nM

## CC(C)(O)C(=O)N1CCN(c2cccc(-c3cnc4c(N5CCOCC5)nc(-c5cnc(N)nc5)nc4c3)c2)CC1 [Example 108, 1-(4-(3-(2-(2-amino-pyrimidin-5-yl)-4-morpholinopyrido[3,2-d]pyrimidin-7-yl)-phenyl)piperazin-1-yl)-2-hydroxy-2-methylpropan-1-one]
PC3 cells
  IC50: 100 to 500 nM
PI3Kα (wild-type)
  IC50: < 50 nM
mTOR kinase
  IC50: < 50 nM

## Nc1ncc(-c2nc(N3CCOCC3)c3ncc(-c4cccc(NC(=O)N5CCOCC5)c4)cc3n2)cn1 [Example 10, N-(3-(2-(2-aminopyrimidin-5-yl)-4-morpholinopyrido[3,2-d]pyrimidin-7-yl)-phenyl)morpholine-4-carboxamide]
PC3 cells
  IC50: 501 to 5000 nM
PI3Kα (wild-type)
  IC50: < 50 nM
mTOR kinase
  IC50: < 50 nM

## Nc1ncc(-c2nc(N3CCOCC3)c3ncc(-c4ccc(C(=O)Nc5ccncc5)cc4)cc3n2)cn1 [Example 38, 4-(2-(2-aminopyrimidin-5-yl)-4-morpholino-pyrido[3,2-d]pyrimidin-7-yl)-N-(pyridin-4-yl)-benzamide]
PC3 cells
  IC50: > 1000 nM
PI3Kα (wild-type)
  IC50: < 50 nM
mTOR kinase
  IC50: 50 to 200 nM

## N#CC1(C(=O)Nc2ccc(F)c(-c3cnc4c(N5CCOCC5)nc(-c5cnc(N)nc5)nc4c3)c2)CC1 [Example 124, N-(3-(2-(2-amino-pyrimidin-5-yl)-4-morpholinopyrido[3,2-d]pyrimidin-7-yl)-4-fluorophenyl)-1-cyanocyclopropane-carboxamide]
PC3 cells
  IC50: > 1000 nM
PI3Kα (wild-type)
  IC50: < 50 nM
mTOR kinase
  IC50: 50 to 200 nM

## Nc1ncc(-c2nc(N3CCOCC3)c3ncc(-c4ccco4)cc3n2)cn1 [Example 25, 5-(7-(furan-2-yl)-4-morpholinopyrido[3,2-d]-pyrimidin-2-yl)pyrimidin-2-amine]
PC3 cells
  IC50: 100 to 500 nM
PI3Kα (wild-type)
  IC50: < 50 nM
mTOR kinase
  IC50: < 50 nM

## Cc1ccc(-c2cnc3c(N4CCOCC4)nc(-c4cnc(N)nc4)nc3c2)o1 [Example 26, 5-(7-(5-methylfuran-2-yl)-4-morpholino-pyrido[3,2-d]pyrimidin-2-yl)pyrimidin-2-amine]
PC3 cells
  IC50: 501 to 5000 nM
PI3Kα (wild-type)
  IC50: < 50 nM
mTOR kinase
  IC50: 50 to 200 nM

## CN1CCN(C(=O)Nc2cccc(-c3cnc4c(N5CCOCC5)nc(-c5cnc(N)nc5)nc4c3)c2)CC1 [Example 89, N-(3-(2-(2-aminopyrimidin-5-yl)-4-morpholinopyrido[3,2-d]pyrimidin-7-yl)phenyl)-4-methylpiperazine-1-carboxamide]
PC3 cells
  IC50: 501 to 5000 nM
PI3Kα (wild-type)
  IC50: < 50 nM
mTOR kinase
  IC50: < 50 nM

## Nc1ncc(-c2nc(N3CCOCC3)c3ncc(-c4cccc(NC(=O)C5CC5)c4F)cc3n2)cn1 [Example 115, N-(3-(2-(2-amino-pyrimidin-5-yl)-4-morpholinopyrido[3,2-d]pyrimidin-7-yl)-2-fluorophenyl)-cyclopropane-carboxamide]
PC3 cells
  IC50: 100 to 500 nM
PI3Kα (wild-type)
  IC50: < 50 nM
mTOR kinase
  IC50: < 50 nM
